Target: T1, HCV-p7 (synthetic p7_1-63) (Hepatitis C virus (isolate H77), UniProt P27958)
T1 construct: mature p7 of the HCV genome polyprotein; synthetic peptide (solid-phase), extra N-terminal Met (residue 0); 63 residues plus 1; in DPhPC membranes
Experiment: single channel recording in black lipid membrane
Format: biochemical
Details: DPhPC membranes; 10 µM methanol solution of p7 added; read after five minutes; concentration of HMA not in text

T1 sequence (P27958 747-809): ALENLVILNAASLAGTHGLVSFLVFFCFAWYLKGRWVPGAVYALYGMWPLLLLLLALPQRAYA

## N=C(N)NC(=O)c1nc(Cl)c(N2CCCCCC2)nc1N [HMA]
  channel block: HCV-p7 ion channel activity is blocked by HMA in a full trace of different voltages

From publication PMC3883635, “Two Different Conformations in Hepatitis C Virus p7 Protein Account for Proton Transport and Dye Release” (PLoS ONE, 2014)
